Data: ChEMBL document CHEMBL1201862, “PubChem BioAssay data set” (2004)
Calls of active or inactive are those of the source.

What was measured:
[1] = biological target: Eukaryotic translation initiation factor 4E (Mus musculus, UniProt P63073); test: blockers of eIF4G binding by eIF4E – biochemical, TR-FRET, dose response (AID 855); assay type: functional;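 note: potency for disrupting eIF4E binding to eIF4GI seen as loss of FRET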
[2] = biological target: Phosphoethanolamine/phosphocholine phosphatase (Homo sapiens, UniProt Q8TCT1); test: SAR assay for compounds that inhibit PHOSPHO1. [Related pubchem assays (depositor defined):AID1545, AID1565, AID1574]
[3] = biological target: T1, Mannose-6-phosphate isomerase (Homo sapiens, UniProt P34949); test: phosphomannose isomerase inhibition – biochemical, fluorescence intensity, confirmation (AID 1535)
T1 sequence (P34949 whole entry): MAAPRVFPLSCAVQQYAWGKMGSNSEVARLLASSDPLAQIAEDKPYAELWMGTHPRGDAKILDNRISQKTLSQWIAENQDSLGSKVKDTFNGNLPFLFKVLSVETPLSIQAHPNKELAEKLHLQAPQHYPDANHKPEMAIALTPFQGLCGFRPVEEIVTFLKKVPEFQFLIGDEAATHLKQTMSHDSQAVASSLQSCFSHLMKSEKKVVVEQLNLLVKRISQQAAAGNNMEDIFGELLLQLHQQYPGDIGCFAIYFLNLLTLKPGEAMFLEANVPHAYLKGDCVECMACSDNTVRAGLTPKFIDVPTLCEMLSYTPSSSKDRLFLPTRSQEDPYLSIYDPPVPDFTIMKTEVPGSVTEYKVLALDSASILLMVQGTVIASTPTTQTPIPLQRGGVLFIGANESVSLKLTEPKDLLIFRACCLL

Phosphomannomutase 2 = Phosphomannomutase 2 (Homo sapiens, UniProt O15305); test: Counter screen SAR assay for PMM2 inhibitors via a fluorescence intensity assay. [Related pubchem assays (depositor defined):AID1545, AID1574]
[4] = viability loss in THP-1 monocytes – THP-1 cells, cytotoxicity control for Vif-APOBEC3G degradation inhibitor project, dose response (AID 1117359); assay type: functional; conditions: THP-1
Protein Tat = biological target: T2, Protein Tat (Human immunodeficiency virus type 1 group M subtype B (isolate HXB2)(HIV-1), UniProt P04608); assay type: functional;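 note: tat binding to TAR RNA read out by fluorescence polarization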
T2 sequence (P04608 whole entry): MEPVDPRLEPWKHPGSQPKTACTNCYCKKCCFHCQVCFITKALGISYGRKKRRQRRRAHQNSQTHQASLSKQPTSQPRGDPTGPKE

[5] = biological target: T3, Histone-lysine N-methyltransferase NSD2 (Homo sapiens, UniProt O96028); assay type: biochemical
T3 sequence (O96028 whole entry): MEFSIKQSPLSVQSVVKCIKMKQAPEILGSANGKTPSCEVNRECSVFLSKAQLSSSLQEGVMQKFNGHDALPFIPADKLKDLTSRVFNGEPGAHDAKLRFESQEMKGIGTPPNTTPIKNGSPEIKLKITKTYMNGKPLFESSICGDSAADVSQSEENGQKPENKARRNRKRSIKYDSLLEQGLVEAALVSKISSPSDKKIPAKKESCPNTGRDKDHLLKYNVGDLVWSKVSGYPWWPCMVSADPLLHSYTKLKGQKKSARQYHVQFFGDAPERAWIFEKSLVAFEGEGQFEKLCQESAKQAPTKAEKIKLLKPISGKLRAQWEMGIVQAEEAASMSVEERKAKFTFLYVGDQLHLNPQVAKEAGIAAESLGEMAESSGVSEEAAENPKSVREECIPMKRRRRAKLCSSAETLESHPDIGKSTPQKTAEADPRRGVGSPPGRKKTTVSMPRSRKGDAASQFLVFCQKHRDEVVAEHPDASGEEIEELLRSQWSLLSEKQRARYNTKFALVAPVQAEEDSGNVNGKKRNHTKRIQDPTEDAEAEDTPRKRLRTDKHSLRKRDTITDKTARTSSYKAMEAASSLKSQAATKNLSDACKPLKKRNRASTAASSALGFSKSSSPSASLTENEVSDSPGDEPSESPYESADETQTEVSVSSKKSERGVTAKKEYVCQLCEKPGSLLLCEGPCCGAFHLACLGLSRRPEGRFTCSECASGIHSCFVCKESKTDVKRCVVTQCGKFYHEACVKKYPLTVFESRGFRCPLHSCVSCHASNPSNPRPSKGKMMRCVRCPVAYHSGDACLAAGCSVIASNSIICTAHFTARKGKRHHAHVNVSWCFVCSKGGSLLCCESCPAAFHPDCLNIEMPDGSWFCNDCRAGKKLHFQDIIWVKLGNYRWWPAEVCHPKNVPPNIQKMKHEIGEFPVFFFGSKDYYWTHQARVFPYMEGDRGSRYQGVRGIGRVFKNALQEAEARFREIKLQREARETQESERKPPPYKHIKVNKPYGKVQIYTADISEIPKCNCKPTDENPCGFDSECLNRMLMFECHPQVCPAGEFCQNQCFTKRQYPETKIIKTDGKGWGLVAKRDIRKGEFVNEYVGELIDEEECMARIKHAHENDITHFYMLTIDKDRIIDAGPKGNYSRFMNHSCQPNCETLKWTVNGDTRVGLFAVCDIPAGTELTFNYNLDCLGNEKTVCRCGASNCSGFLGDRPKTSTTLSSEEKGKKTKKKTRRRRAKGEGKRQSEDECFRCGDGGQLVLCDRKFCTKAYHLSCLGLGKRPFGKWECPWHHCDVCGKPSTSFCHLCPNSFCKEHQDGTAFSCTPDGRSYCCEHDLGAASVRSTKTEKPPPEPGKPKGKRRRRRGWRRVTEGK

Bcl-2-like protein 10 = biological target: T4, Bcl-2-like protein 10 (Homo sapiens, UniProt Q9HD36); test: Bcl-B/TR3 peptide binding disruption – biochemical, fluorescence polarization, FITC-TR3 peptide, selectivity assay for Bfl-1 inhibitor project, primary screen (AID 748);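 note: fluorescence polarization from a fluorescein-labelled TR3 peptide binding purified Bcl-B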
T4 sequence (Q9HD36 whole entry): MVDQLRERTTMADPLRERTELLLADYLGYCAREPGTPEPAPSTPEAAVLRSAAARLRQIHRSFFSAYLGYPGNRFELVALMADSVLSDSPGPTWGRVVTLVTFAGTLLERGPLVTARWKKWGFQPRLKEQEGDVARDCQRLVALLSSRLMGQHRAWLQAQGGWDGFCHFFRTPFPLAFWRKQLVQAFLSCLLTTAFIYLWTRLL

[6] = HGIII-sPLA2 enzyme inhibition potency – biochemical, QFRET, IC50, dose response (AID 743457);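 note: green fluorescence rise as the enzyme cleaves BODIPY PC-A2 in liposomes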
[7] = fluconazole-exposed Candida albicans growth modulators – fluorescence, retest, confirmation (AID 2467); assay type: functional, cell-based
[8] = NIH-3T3 fibroblast cytotoxicity, dose response, cytotoxicity control, cell-based, fluorescence, Alamar Blue, secondary assay (AID 2327); assay type: functional;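 note: NIH-3T3 mouse fibroblasts cultured with fluconazole at 8 µg/mL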
[9] = biological target: NACHT, LRR and PYD domains-containing protein 3 (Homo sapiens, UniProt Q96P20); test: NALP3 inhibitors in yeast, dose response, luminescent (AID 488799); assay type: functional
[10] = biological target: T5, Voltage-gated N-type calcium channel alpha-1B subunit/Amyloid beta A4 precursor protein-binding family A member 1 (Homo sapiens, UniProt Q00975+Q02410); test: disruptors of Mint-PDZ/N-type channel peptide interaction – biochemical, HTRF, SAR follow-up (AID 2489); assay type: functional
[11] = biological target: T5, Voltage-gated N-type calcium channel alpha-1B subunit/Amyloid beta A4 precursor protein-binding family A member 1; test: disruptors of Mint-PDZ/N-type channel peptide interaction – biochemical, HTRF, set 2, SAR follow-up (AID 434980); assay type: functional
[12] = Luminescence Cell-Based Dose Response HTS to Identify Activators of Luciferase Translation or Activity in H4 […] Cells. [Related pubchem assays: 1829 (Project Summary), 1814 (Primary HTS)]; assay type: functional
[13] = biological target: T6, Corticotropin-releasing factor receptor 2/Corticotropin-releasing factor-binding protein (Homo sapiens, UniProt P24387+Q13324); test: activators of CRF receptor 2 with binding protein – uHTS hits, confirmation (AID 602473); assay type: functional; conditions: read-out: EC50_Mean
T6 sequence (Q13324 whole entry): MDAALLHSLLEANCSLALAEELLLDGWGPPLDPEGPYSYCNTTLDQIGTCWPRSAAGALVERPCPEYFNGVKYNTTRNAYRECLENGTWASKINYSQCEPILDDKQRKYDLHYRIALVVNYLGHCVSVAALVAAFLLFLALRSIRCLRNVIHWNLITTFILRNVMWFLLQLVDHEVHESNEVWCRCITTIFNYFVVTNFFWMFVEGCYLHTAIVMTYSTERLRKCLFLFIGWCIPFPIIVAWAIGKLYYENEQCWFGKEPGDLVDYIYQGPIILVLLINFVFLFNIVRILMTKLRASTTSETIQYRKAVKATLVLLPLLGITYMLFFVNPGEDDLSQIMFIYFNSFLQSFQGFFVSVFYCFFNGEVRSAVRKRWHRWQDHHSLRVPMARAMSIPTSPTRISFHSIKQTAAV
T6 sequence (P24387 whole entry): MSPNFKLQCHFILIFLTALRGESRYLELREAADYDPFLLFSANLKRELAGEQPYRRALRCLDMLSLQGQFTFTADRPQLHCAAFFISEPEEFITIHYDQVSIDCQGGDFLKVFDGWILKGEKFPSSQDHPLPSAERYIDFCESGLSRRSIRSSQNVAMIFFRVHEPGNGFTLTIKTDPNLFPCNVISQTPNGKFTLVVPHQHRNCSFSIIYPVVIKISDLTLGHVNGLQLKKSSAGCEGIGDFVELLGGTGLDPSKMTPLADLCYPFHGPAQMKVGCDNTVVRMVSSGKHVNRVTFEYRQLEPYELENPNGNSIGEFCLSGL

[14] = biological target: T6, Corticotropin-releasing factor receptor 2/Corticotropin-releasing factor-binding protein; test: Dose Response confirmation of uHTS hits for small molecule antagonists of the CRF-binding protein and CRF-R2 receptor complex.; assay type: functional; conditions: read-out: IC50_Mean
H4 = test: Luminescence Cell-Based Dose Response HTS to Identify Activators of 5'UTR Stem-Loop Driven Prion Protein mRNA Translation in H4 Neuroglioblastoma Cells. [Related pubchem assays: 1829 (Project Summary), 1814 (Primary HTS)]; assay type: functional; conditions: Homo sapiens
[15] = blockers of CRF-binding protein–CRF-R2 complex – cell-based, uHTS hits, 384-well, dose response (AID 651639); assay type: functional, Homo sapiens; conditions: read-out: IC50_Mean
[16] = biological target: Envelope glycoprotein gp160 (Human immunodeficiency virus 1, UniProt Q6QLK5); test: cell-free HIV fusion peptide-binding blockers – biochemical, uHTS, fluorescence dequenching, […] (AID 1986)
[17] = Luminescence Cell-Based Dose Confirmation HTS to Identify Activators of 5'UTR Stem-Loop Driven Alpha-Synuclein mRNA Translation in H4 Neuroglioblastoma Cells. [Related pubchem assays: 1829 (Project Summary), 1814 (Primary HTS)]; assay type: functional
[18] = biological target: Melanin-concentrating hormone receptor 1 (Homo sapiens, UniProt Q99705); test: Late-stage fluorescence-based counterscreen for antagonists of the G-protein coupled receptor 7 (GPR7): cell-based dose response assay to identify antagonists of the melanin-concentrating hormone receptor 1 (MCHR1). [Related pubchem assays (depositor defined):AID1861, AID1880, AID1952, AID2148, AID2251, AID2257, AID485339]; assay type: functional;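 note: stimulated with 30 nM MCH peptide agonist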
[19] = biological target: T7, Neuropeptides B/W receptor type 1 (Homo sapiens, UniProt P48145); test: human NPBW1 receptor blockade, IC50 – cell-based, fluorescence, dose response, late-stage follow-up (AID 463251); assay type: functional
T7 sequence (P48145 whole entry): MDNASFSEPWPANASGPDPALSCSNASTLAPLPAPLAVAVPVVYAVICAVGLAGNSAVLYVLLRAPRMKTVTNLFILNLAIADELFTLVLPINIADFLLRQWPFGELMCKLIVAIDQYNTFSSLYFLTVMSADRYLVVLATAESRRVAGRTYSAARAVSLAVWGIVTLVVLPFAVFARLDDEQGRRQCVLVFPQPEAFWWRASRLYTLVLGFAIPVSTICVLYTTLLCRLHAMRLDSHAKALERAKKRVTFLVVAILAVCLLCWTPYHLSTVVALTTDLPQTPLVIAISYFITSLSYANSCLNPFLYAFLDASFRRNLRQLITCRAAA

T5 sequence (Q00975 whole entry): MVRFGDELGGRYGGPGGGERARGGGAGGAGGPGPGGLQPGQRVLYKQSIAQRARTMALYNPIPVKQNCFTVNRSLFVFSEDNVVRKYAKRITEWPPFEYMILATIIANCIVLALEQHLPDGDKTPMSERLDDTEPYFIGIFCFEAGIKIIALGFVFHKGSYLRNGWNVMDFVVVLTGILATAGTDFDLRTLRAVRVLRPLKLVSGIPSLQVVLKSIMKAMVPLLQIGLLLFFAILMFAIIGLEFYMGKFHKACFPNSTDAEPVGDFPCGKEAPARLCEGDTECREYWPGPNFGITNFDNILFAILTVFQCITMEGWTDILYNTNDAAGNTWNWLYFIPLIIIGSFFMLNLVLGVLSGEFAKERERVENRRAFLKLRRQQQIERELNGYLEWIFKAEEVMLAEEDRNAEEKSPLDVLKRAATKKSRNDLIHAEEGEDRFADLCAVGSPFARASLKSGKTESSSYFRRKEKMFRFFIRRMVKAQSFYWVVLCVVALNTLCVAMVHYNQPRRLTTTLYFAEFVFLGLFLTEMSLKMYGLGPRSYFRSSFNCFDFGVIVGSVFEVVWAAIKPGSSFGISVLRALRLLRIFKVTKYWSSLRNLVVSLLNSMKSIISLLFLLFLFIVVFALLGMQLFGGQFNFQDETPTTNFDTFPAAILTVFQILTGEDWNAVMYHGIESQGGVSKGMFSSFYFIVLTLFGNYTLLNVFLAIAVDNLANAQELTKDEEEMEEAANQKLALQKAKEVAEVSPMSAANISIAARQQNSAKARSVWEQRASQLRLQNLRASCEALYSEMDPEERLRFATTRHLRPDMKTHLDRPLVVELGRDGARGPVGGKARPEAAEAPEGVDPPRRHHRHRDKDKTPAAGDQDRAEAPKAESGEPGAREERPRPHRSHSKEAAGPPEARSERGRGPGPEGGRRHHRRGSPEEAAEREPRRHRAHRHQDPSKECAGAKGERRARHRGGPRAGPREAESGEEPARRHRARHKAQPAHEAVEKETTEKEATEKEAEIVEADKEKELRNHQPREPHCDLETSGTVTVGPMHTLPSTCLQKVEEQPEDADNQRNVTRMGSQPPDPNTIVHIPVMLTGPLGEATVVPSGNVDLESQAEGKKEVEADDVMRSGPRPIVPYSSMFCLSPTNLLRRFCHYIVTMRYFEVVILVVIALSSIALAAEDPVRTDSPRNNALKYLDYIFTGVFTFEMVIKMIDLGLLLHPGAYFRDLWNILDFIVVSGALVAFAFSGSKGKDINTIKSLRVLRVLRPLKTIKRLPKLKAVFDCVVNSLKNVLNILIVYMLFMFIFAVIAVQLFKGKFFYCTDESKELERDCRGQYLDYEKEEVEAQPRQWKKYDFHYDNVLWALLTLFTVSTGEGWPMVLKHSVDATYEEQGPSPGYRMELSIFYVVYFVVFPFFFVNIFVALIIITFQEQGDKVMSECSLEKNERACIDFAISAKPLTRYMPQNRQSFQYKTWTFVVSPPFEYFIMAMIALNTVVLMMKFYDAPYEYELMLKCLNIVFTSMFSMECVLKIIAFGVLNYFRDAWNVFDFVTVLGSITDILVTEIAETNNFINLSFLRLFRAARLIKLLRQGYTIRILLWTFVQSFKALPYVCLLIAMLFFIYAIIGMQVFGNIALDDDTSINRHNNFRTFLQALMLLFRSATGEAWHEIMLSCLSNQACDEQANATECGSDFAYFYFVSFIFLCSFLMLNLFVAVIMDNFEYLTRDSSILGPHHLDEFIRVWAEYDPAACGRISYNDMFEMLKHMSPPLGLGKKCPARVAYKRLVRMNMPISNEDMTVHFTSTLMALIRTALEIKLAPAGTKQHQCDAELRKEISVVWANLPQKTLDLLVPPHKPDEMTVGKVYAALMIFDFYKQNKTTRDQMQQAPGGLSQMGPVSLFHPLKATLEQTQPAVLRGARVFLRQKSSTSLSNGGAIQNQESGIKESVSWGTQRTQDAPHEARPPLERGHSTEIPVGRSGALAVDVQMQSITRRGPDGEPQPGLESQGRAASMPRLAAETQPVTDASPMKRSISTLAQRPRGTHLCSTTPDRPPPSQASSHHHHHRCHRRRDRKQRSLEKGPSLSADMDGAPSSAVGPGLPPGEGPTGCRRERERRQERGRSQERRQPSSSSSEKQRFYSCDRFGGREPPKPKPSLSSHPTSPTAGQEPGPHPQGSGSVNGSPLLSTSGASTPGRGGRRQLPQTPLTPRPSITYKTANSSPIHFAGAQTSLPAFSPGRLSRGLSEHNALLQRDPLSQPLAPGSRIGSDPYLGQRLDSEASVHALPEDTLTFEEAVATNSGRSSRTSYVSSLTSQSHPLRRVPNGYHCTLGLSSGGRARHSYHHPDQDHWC
T5 sequence (Q02410 whole entry): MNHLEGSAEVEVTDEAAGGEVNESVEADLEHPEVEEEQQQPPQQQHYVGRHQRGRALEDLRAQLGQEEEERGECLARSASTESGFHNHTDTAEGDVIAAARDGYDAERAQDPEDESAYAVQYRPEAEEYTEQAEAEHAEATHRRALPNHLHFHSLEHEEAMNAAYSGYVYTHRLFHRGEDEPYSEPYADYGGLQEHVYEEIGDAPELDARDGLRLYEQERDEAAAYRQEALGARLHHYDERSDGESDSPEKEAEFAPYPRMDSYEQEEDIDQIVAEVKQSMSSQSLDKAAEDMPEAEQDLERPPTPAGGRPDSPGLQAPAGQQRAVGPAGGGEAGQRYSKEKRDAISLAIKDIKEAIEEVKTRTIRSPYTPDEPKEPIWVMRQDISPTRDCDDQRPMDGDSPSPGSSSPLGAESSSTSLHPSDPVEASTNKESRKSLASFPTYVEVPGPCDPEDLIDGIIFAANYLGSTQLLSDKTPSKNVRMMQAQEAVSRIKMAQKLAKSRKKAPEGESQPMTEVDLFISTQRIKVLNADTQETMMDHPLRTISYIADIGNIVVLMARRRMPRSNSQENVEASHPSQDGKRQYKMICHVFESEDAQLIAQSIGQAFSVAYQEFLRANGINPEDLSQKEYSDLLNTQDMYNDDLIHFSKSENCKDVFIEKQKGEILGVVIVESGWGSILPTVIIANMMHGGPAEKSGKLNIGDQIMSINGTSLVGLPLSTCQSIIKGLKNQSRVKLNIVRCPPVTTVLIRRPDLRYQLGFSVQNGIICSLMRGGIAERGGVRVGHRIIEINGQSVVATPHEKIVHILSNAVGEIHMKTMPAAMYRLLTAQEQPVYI
Chain of Eukaryotic translation initiation factor 4E (P63073 whole entry): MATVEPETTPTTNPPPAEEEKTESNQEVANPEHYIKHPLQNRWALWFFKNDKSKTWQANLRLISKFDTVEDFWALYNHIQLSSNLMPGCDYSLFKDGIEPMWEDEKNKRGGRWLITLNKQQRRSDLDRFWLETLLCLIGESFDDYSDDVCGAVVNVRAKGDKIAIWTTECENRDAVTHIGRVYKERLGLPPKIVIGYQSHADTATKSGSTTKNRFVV
Chain of Envelope glycoprotein gp160 (Q6QLK5 whole entry, the tested form may be a part): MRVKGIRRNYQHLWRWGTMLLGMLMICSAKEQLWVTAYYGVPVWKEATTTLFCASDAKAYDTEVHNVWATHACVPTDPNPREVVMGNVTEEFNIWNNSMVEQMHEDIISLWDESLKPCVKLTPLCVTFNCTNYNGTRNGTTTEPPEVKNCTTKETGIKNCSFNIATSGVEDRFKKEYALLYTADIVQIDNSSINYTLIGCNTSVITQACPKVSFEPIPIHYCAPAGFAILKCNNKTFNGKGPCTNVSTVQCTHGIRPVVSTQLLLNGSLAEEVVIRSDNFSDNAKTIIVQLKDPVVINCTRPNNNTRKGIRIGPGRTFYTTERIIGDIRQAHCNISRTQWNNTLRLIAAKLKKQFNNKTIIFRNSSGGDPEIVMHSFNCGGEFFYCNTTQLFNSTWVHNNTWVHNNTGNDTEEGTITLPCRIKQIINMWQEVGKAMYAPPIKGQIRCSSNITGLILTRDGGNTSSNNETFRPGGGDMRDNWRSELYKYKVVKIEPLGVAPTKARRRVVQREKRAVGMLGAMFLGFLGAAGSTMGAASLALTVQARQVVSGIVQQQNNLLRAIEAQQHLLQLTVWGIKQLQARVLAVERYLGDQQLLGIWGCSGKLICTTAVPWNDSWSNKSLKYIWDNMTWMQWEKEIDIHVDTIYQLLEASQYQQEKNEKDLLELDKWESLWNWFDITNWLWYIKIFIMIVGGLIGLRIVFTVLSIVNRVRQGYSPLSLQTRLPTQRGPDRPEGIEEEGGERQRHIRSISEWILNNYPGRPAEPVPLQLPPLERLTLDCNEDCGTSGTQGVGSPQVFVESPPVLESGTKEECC
Chain of Phosphoethanolamine/phosphocholine phosphatase (Q8TCT1 whole entry): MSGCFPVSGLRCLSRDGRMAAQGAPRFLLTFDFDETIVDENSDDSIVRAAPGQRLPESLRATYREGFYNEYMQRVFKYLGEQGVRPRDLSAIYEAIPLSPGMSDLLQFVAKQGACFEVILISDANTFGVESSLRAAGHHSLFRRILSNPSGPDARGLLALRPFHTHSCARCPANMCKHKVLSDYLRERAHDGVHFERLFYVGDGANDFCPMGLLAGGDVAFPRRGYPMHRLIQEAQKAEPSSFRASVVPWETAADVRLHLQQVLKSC
Chain of Phosphomannomutase 2 (O15305 whole entry): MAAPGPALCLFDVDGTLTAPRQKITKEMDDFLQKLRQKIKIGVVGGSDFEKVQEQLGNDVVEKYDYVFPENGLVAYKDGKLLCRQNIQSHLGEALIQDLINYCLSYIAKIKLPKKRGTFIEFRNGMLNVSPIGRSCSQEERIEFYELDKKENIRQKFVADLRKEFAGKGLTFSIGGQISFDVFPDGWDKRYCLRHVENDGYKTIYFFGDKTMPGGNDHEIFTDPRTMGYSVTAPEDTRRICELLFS
Chain of Melanin-concentrating hormone receptor 1 (Q99705 whole entry): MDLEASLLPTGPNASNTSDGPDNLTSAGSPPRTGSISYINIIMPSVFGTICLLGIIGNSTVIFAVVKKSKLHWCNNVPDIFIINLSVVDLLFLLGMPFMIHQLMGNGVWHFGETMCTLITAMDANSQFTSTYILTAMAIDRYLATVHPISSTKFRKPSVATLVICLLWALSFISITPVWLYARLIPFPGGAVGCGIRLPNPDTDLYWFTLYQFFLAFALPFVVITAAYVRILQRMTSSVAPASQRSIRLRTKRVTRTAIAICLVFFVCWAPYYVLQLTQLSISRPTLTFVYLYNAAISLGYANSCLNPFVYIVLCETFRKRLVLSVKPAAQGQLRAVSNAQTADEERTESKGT

O=c1c2c([N+](=O)[O-])cc([N+](=O)[O-])cc2sn1-c1ccc(Br)cc1
IC50 [1]: 8.14 µM (active) | IC50 [2]: 0.0725 µM (active) | IC50 [3]: 12.2 µM (active) | IC50 (Phosphomannomutase 2): 10.8 µM (active)

N#C/C(C(N)=O)=c1/ccc2c(c1)N1C3=C(CCCC3)CC3CCCCC31N=2 (stereo not drawn)
CC50 [4]: 33.5 µM (active) | IC50 (Protein Tat): > 100 µM (inconclusive) | AC50 [5]: 10.2 µM (active) | IC50 (Bcl-2-like protein 10): > 50 µM (inactive) | IC50 [6]: 72.7 µM (inactive) | EC50 [7]: 4.01 µM (active) | EC50 [8]: 8.74 µM (inconclusive)

c1ccc(C2Nc3ccccc3C3OCCCC23)cc1 (stereo not drawn)
IC50 [9]: 7.36 µM (active)

O=C(NC1CCC(c2ccccc2)CC1)c1cc(-c2ccco2)nc2ccccc12 (stereo not drawn)
IC50 [10]: 5.59 µM (active) | IC50 [11]: 25.5 µM (active)

CCS(=O)(=O)C1=NSC2=NC(=O)/C(=C\c3cc(C)n(-c4cccc(OC)c4)c3C)C(=N)N21
EC50 [12]: > 120 µM (not active) | EC50 [13]: > 53 µM (inactive) | IC50 [14]: 5.1 µM (active) | EC50 (H4): > 120 µM (not active) | IC50 [15]: 6.75 µM (active) | IC50 [16]: > 99 µM (inactive) | EC50 [17]: > 120 µM (not active)

O=C(C1CCCCN1Cc1cccc(Cl)c1Cl)N1CCN(c2ccc([N+](=O)[O-])cc2)CC1 (stereo not drawn)
IC50 [18]: 3.3 µM (active) | IC50 [19]: 4.4 µM (active)
